According to paper PMC10609720, “Antiviral Activity of Flavonoids from Geopropolis of the Brazilian Jandaira Bee against Zika and Dengue Viruses” (Pharmaceutics, 2023):

Tests used:
[1] = Cell viability assay (MTT) in Vero cells; assay type: cell-based; settings: African green monkey
Procedure: (§1) The cell toxicity induced by the three tested fractions and the isolated flavonoids was evaluated in a growing Vero cell. […] To this end, Vero cells (1 × 10^4 cells/well) were plated in 96-well microplates 24 h beforehand. […] After a period of 120 h at 37 °C in a 5% CO2 atmosphere, the culture medium was removed from the plate, and 50 μL of recently prepared MTT solution (1 mg/mL) was then added. The 96-well microplate was placed in a CO2 incubator for 4 h at 37 °C. After this period, the MTT solution was replaced by DMSO. Then, the optical density at 540 nm (OD540) was measured using a BioTekTM ELx800TM 96-well plate reader (BioTek Instruments Inc., Winooski, VT. The OD540 subtraction of treated cells compared to untreated cells was calculated. […] The CC20 value was empirically defined as the maximum safe limit to perform the antiviral screening. Results were expressed as mean ± SD of three independent replicates. The differences in viral titer of treated and untreated infected cells were analyzed according to ANOVA followed by the Dunnett test using GraphPad Prism software v.5.01 (GraphPad Software, La Jolla, CA, USA). The drug concentration that reduced viral titer by 50% (IC50) was defined using the same software. […] The CC50 and CC20 values were also calculated using GraphPad Prism software in a non-linear regression interpretation. The selective index (SI) was based on the ratio math of CC50 and IC50 values. Data were reported as the mean ± standard deviation (SD) of three independent experiments. Significance was only considered when p < 0.05.

ZIKV = experiment: Post-treatment antiviral assay, viral titration by TCID50, ZIKV-infected Vero cells; assay type: cell-based; settings: for % ZIKV Inhibition / IC50: Vero cells; for % ZIKV Inhibition: MOI 0.1, treated with CC20 of each sample for 120 h, TCID50; for SI / IC50: ZIKV; for SI: ratio of CC50 and IC50; for IC50: MOI 0.1, concentration to reduce viral titer by 50%; for ZIKV-induced cytopathic effect in Vero cell monolayers: treatment at CC20, microscopy, Figure 4B,C
Procedure: (§2) One day prior to infection with the ZIKV or DENV strain, Vero cells were seeded in 24-well plates (5 × 10^4 cells/well). The infection was performed at the multiplicity of infection (MOI) of 0.1 for 2 h at 37 °C in 5% CO2. After virus internalization, the inoculum was removed, and the cells were washed using the growth medium. […] 6-MMPr, used as positive control drug, was also included as a drug treatment in some wells [33]. Controls of mock (non-infected) and infected non-treated cells were included. At 120 h post-infection (hpi), the cytopathic effect was evaluated using an inverted microscope (AE2000 binocular microscope, Motic, Hong Kong), and cells were photographed with a smartphone. The cell supernatant was harvested at 120 hpi and stored at −80 °C for posterior virus titration, using the TCID50 method.
(§3) The TCID50 method was used here to perform viral titration. The titer values were expressed as log10 TCID50/mL. One day prior to titration, Vero cells were seeded in a 96-well plate (1 × 10^4 cells/well) at 37 °C in a 5% CO2 incubator. The cell supernatants that were previous stored (see item 2.5—cytopathic effect assay) were serially diluted 10-fold in DMEM and submitted to the cell monolayer. After incubation for 5 days at 37 °C and 5% CO2, the cytopathic effect was observed through an inverted optical microscope, and the reduction in viral titer was defined according to Reed–Muench parameters.
(§4) The differences in viral titer of treated and untreated infected cells were analyzed according to ANOVA followed by the Dunnett test using GraphPad Prism software v.5.01 (GraphPad Software, La Jolla, CA, USA). The drug concentration that reduced viral titer by 50% (IC50) was defined using the same software. This represents the compound concentration required to reduce ZIKV or DENV titer by 50% when compared with the non-treated cells. The CC50 and CC20 values were also calculated using GraphPad Prism software in a non-linear regression interpretation. The selective index (SI) was based on the ratio math of CC50 and IC50 values. Data were reported as the mean ± standard deviation (SD) of three independent experiments. Significance was only considered when p < 0.05.

DENV-2 = experiment: Post-treatment antiviral assay, viral titration by TCID50, DENV-infected Vero cells; assay type: cell-based; settings: for SI / IC50: DENV; for SI: ratio of CC50 and IC50; for IC50 / % DENV-2 Inhibition: Vero cells; for IC50: MOI 0.1, concentration to reduce viral titer by 50%; for % DENV-2 Inhibition: MOI 0.1, treated with CC20 of each sample for 120 h, TCID50
Procedure: as §2, §3, §4

Hela cells = system: Hela cells; set-up: method as in PMID 29354400; settings: at the tested concentrations, ref [59]; cited from earlier work
Vero cells = experiment: Cell viability assay (MTT) in Vero cells; assay type: cell-based; settings: Vero cells
Procedure: as §1

[2] = Table 3, non-toxic concentration used in the antiviral assays

## COc1cc(O)c2c(c1)O[C@H](c1ccc(O)cc1)CC2=O [7-O-methyl naringenin]
[1]
  CC50 at 120 h: 240 µM
ZIKV
  % ZIKV Inhibition: 30.3%
  SI: 18.7
  ZIKV-induced cytopathic effect in Vero cell monolayers: prevented morphological modifications
ZIKV; Zika virus
  IC50: 12.8 µM
DENV-2
  SI: 7.7
  % DENV-2 Inhibition: 51.6%
DENV-2; Dengue virus, DENV2
  IC50: 30.9 µM
DENV-2; treatment at CC20, microscopy, Figure 5B,C
  DENV-induced cytopathic effect in Vero cell monolayers: prevented morphological modifications
Hela cells
  cell viability: 100%

## CSc1ncnc2c1ncn2[C@@H]1O[C@H](CO)[C@@H](O)[C@H]1O [6-MMPr, 6-methylmercaptopurine riboside, reference compound]
Vero cells; Table 2, MTT method, 120 h
  CC50: 291 µM
Vero cells; Table 3
  CC50: 291 µM
Vero cells; [2]
  CC20: 60.5 μM/mL
ZIKV
  % ZIKV Inhibition: 51.5%
  IC50: 24.5 µM
  SI: 11.9
DENV-2
  IC50: 18.2 µM
  SI: 16.0
  % DENV-2 Inhibition: 48.3%

## O=C1C[C@@H](c2ccc(O)cc2)Oc2cc(O)cc(O)c21 [Naringenin]
[1]
  CC50 at 120 h: 242 µM
Vero cells; Table 2, MTT method, 120 h
  CC20: 86.43 µM/mL
Vero cells; [2]
  CC20: 86.43 μM/mL
ZIKV
  % ZIKV Inhibition: 34.7%
  ZIKV-induced cytopathic effect in Vero cell monolayers: prevented morphological modifications
ZIKV; Zika virus
  IC50: 58.9 µM
DENV-2; Dengue virus, DENV2
  IC50: 42.9 µM
DENV-2
  % DENV-2 Inhibition: 61.5%
